Measured values published in patent US20050019825A9, “Common ligand mimics: pseudothiohydantoins” (priority 2002, published 2005).
Like-named read-outs stand apart in the source and are kept apart here.

Assays:
[1] = molecular target: T1, alcohol dehydrogenase (ADH) (Saccharomyces cerevisiae, UniProt P00330); assay: ADH kinetic assay, spectrophotometric reduction of NAD+ (340 nm); type: biochemical, Bakers Yeast
T1 construct: 10 μl of ADH from Bakers Yeast; host or cells: bakers yeast
T1 sequence (P00330 1-348): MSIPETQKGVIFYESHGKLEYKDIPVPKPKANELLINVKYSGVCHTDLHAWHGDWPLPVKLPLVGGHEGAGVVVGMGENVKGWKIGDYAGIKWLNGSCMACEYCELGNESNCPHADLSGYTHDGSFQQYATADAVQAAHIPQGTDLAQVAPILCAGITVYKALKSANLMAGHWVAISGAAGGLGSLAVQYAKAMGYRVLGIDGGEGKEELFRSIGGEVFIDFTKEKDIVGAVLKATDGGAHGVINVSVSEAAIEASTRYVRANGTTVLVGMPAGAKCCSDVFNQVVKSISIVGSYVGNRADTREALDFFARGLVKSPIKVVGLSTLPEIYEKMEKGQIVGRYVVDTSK
Method: For ADH analysis, the compounds were screened using a kinetic protocol that spectrophotometrically evaluates reduction of NAD+.
(§1) Stock solutions of each of the reagents were prepared in the following concentrations. Dilutions of the stock solutions were prepared prior to running the assay in the concentrations indicated below.
The ADH reaction was monitored at 340 nm prior to and after addition of the inhibitor to detect background reaction with the inhibitor. Solutions of 100 μl of the inhibitors in DMSO were prepared to provide a final DMSO concentration of 5% of the total assay volume. These solutions were incubated for 6 minutes at 25° C. in a 990 μl of a solution containing 0.1 M HEPES, pH 8.0, 80 μM NAD+, and 130 mM of ethanol. The reaction was then initiated with 10 μl of ADH from Bakers Yeast ([…]; 1:400 dilution of 1.0 mg/ml). After the enzyme was added, the solution was mixed for 20 seconds, and the reaction was run for 10 minutes. After a 50 second lag, the samples were read in a Cary spectrophotometer at 340 nm. Reading of the samples was continued until 300 seconds. […] The substrate was kept at a level at least 10 times the Km. The final concentration of […] was about 2.5 mM.
Where only a simple read was desired, as in the case of NAD+ concentration determination, 13 μl (10 M stock) of ethanol was used to drive the reaction, and 10 μl of pure enzyme (1 mg/ml) was used. NAD+ was soluble at 2 mM, which allowed the concentration determination step to be skipped. In this situation, the procedure was as follows. All of the ingredients except for the enzyme were mixed together. The solution was mixed well and the absorbance at 340 nm read. The enzyme was added and read again at OD 340 after the absorbance stopped changing, generally 10 to 15 minutes after the enzyme was added.

[2] = molecular target: glyceraldehyde-3-phosphate dehydrogenase (GAPDH) (Escherichia coli, UniProt P0A9B2); assay: GAPDH kinetic assay, spectrophotometric reduction of NAD+ (340 nm); type: biochemical, E. coli; conditions: for inhibition of GAPDH (in words): Example 24 (FIG. 6)
Method: For GAPDH analysis, the compounds were screened using a kinetic protocol that spectrophotometrically evaluates reduction of NAD+.
as §1
The GAPDH reaction was monitored at 340 nm prior to and after addition of the inhibitor to detect background reaction with the inhibitor. Solutions of 100 μl of the inhibitors incubated for 6 minutes at 25° C. in a 990 μl of a solution containing 125 mM triethanolamine, pH 7.5, 145 μM glyceraldehyde 3-phosphate (GAP), 0.211 mM NAD, 5 mM sodium arsenate, and 3 mM β-metcaptoethanol (2-BME). The reaction was then initiated with 10 μl of E. coli GAPDH (1:200 dilution of 1.0 mg/ml). After the enzyme was added, the solution was mixed for 20 seconds, and the reaction was run for 10minutes. After a 50 second lag, the samples were read in a Cary spectrophotometer at 340 nm. Reading of the samples was continued until 300 seconds. The final concentration of DMSO in a cuvette was about 5% of the total assay volume. Cuvette #1 contained the control reaction (no inhibitor).
GAP for use in this experiment was deprotected from the diethyl acetal in the following manner. Water was boiled in recrystallizing dish. Dowex (1.5 mg) and GAP (200 mg; SIGMA G-5376) were weighed and placed in a 15 ml conical tube. The Dowex and GAP were resuspended in 2 ml dH2O, followed by shaking of the tube until the GAP dissolved. The tube was then immersed, while shaking, in the boiling water for 3 minutes. Next, the tube was placed in an ice bath to cool for 5 minutes. As the sample cooled, a resin settled to the bottom of the test tube, allowing removal of the supernatant with a pasteur pipette. The supernatant was filtered through a 0.45 or 0.2 μM cellulose acetate syringe filter.
The filtered supernatant was retained, and another 1 ml of dH2O was added to the resin tube. The tube was then shaken and centrifuged for 5 minutes at 3,000 rpm. The supernatant was again removed with a pasteur pipette and passed through a 0.45 or 0.2 μM cellulose acetate syringe filter. The two supernatant aliquots were then pooled to provide a total GAP concentration of about 50 mM. The GAP was then divided into 100 μl aliquots and stored at −20° C. until use.

glyceraldehyde-3-phosphate dehydrogenase (GAPDH), sequence (P0A9B2 whole entry): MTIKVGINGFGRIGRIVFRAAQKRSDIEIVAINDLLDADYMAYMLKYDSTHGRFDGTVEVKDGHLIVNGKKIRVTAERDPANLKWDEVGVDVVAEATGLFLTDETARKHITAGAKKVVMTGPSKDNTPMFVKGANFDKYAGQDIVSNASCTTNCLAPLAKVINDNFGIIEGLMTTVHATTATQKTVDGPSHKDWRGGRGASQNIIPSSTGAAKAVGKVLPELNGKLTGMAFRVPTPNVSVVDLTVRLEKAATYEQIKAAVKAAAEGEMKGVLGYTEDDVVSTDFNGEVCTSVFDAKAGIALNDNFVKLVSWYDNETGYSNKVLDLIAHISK

Compound | IC50 [1] | inhibition of GAPDH (in words) [2] | other results
N=C1NC(=O)C(=Cc2ccc(O)c([N+](=O)[O-])c2)S1 [5-(4-hydroxy-3-nitro-benzylidene)-2-imino-thiazolidin-4-one] | > 150 µM | – | IC50 [2]: 153 µM
COc1cc(C=C2SC(N)=NC2=O)ccc1O [5-(4-hydroxy-3-methoxy-benzylidene)-2-imino-thiazolidin-4-one] | > 100 µM | – | –
N=C1NC(=O)C(=Cc2ccc(C(=O)O)cc2)S1 [4-(2-imino-4-oxo-thiazolidin-5-ylidenemethyl)-benzoic acid] | > 100 µM | no inhibition | inhibition of ADH (in words) ([1]; Example 24 (FIG. 6)): no inhibition; IC50 ([2]; common ligand mimics, Examples 23/24, E. coli GAPDH, read-out: IC50 for GAPDH): > 100 µM
Nc1c(S(=O)(=O)O)cc(Nc2ccc(Nc3nc(Cl)nc(Nc4ccccc4S(=O)(=O)O)n3)c(S(=O)(=O)O)c2)c2c1C(=O)c1ccccc1C2=O [Cibacron Blue, reference compound] | – | – | inhibition at 15.5 µM ([1]; Cibacron Blue at 15.5 μM, read-out: inhibition of ADH, positive control): 50 to 60%
COc1cc(O)ccc1C=C1SC(=N)NC1=O [5-(4-hydroxy-2-methoxy-benzylidene)-2-imino-thiazolidin-4-one] | – | no inhibition | –
